Reference: patent US12378211B2, “Carbonic anhydrase inhibitors and antibiotics against multidrug resistant bacteria” (Purdue Research Foundation, priority 2018, dated 2025)
Where two headings read alike, the source gives them in different places.

Tests used:
Assay type in all cases: cell-based
[1] = system: Enterococcus faecium E417-HM-965; experiment: MIC of CAIs in BHIB and TSB
Procedure: (§1) The minimum inhibitory concentrations (MICs) of CAIs were tested against clinical isolates of vancomycin sensitive and vancomycin resistant Enterococci strains as per the guidelines provided by the Clinical and Laboratory Standards Institute (CLSI). The selected strains of Enterococci were streaked on Tryptic Soy Agar (TSA) plates and let grow for 24 hours at 37° C. Afterwards, a bacterial solution equivalent to 0.5 McFarland standard was prepared and diluted in tryptone soy broth (TSB) or brain heart infusion broth (BHIB) to achieve a bacterial concentration of about 5×10^5 CFU/mL and seeded in 96-well well plates. Compounds and control drugs were added in the first row of the 96-well plates and serially diluted along the plates. Plates were then incubated aerobically at 37° C. for 18-20 hours. MICs reported in Table 5 are the minimum concentration of the compounds/control drugs that could inhibit completely the visual growth of the bacteria.

[2] = system: Enterococcus faecium Patient #2-1-NR-31909; experiment: MIC of CAIs in BHIB and TSB
Procedure: as §1

[3] = system: Enterococcus fecalis Strain SF 24397 NR31970; experiment: MIC of CAIs in BHIB and TSB
Procedure: as §1

[4] = system: Enterococcus faecalis—S613 HM-334; experiment: MIC of CAIs in BHIB and TSB
Procedure: as §1, with “bacteria. The MIC values of CAIs against the tested VRE strains were higher in BHIB than in TSB. This may be due to binding of these drugs to proteins. […] They inhibited the VRE strains at MIC values ranging from 1 to 4 μg/mL.” for “bacteria.”

[5] = system: Enterococcus faecalis-S613 HM-334; experiment: MIC in presence of 4% human serum albumin; details: TSB supplemented with 4% human serum albumin
Procedure: as §1, with “against” for “against clinical isolates of vancomycin sensitive and”, “resistant Enterococcus faecalis—S613 HM 334 strain” for “resistant Enterococci strains”, “selected strain was” for “selected strains of Enterococci were”, “(TSA) plate” for “(TSA) plates”, “(TSB) supplemented with 4% human serum albumin (HAS)” for “(TSB) or brain heart infusion broth (BHIB)”, “in table (6)” for “in Table 5”

[6] = Enterococcus faecium, E417HM965, BHIB, read-out: MIC
[7] = Enterococcus faecium, E417HM965, TSB, Table 5, read-out: MIC
[8] = Enterococcus faecium, BHIB, read-out: MIC
[9] = Enterococcus faecium, TSB, Table 5, read-out: MIC
[10] = Enterococcus, BHIB, read-out: MIC
[11] = Enterococcus, TSB, Table 5, read-out: MIC
[12] = Enterococcus, BHIIB, read-out: MIC

SMILES | MIC [1, 6] | MIC [1, 7] | MIC [2, 8] | MIC [2, 9] | MIC [3, 10] | MIC [3, 11] | MIC [4, 12] | MIC [4, 11] | MIC ([5]; Enterococcus, read-out: MIC) | MIC ([1]; BHIB) | MIC ([1]; TSB, Table 5) | MIC ([2]; BHIB) | MIC ([2]; TSB, Table 5) | MIC ([3]; BHIB) | MIC ([3]; TSB, Table 5) | MIC ([4]; BHIIB) | MIC ([4]; TSB, Table 5) | MIC [5]
CC(=O)/N=c1/sc(S(N)(=O)=O)nn1C [Methazolamide] | 64 µg/mL | 4 µg/mL | > 128 µg/mL | 8 µg/mL | > 128 µg/mL | 2 µg/mL | > 128 µg/mL | 1 µg/mL | > 256 µg/mL | – | – | – | – | – | – | – | – | –
CCN[C@H]1CN(CCCOC)S(=O)(=O)c2sc(S(N)(=O)=O)cc21 [Brinzolamide] | 16 µg/mL | 2 µg/mL | > 128 µg/mL | 4 µg/mL | > 128 µg/mL | 2 µg/mL | > 128 µg/mL | 2 µg/mL | > 256 µg/mL | – | – | – | – | – | – | – | – | –
NS(=O)(=O)c1cc(Cl)c(Cl)c(S(N)(=O)=O)c1 [Dichlophenamide] | – | – | – | – | – | – | – | – | – | 16 µg/mL | 1 µg/mL | >128 µg/mL | 2 µg/mL | >128 µg/mL | 16 µg/mL | >128 µg/mL | 16 µg/mL | >256 µg/mL
